46 compounds from the SangsterLogP compilation can be followed below.

Series [1] in a line: method code SF-RC, from DOI: 10.1016/j.nucmedbio.2009.09.005, PMID: 20447558. The following applies: pH 7.4.
Series [2] in a line: method code SF, from DOI: 10.1016/0048-3575(74)90109-6.
Series [3] in a line: method code SF-GLC, from DOI: 10.1002/ps.2780120408. To be noted: pH 7.0.
Series [4] is described as follows: method code SF, from DOI: 10.1021/jm00019a019, PMID: 7562920. The following applies: pH 10.0.
Experiment in series [5]: not given
The source holds these as a separate data set.

Series [6] can be described thus: method code SF-RC, from DOI: 10.1021/jm901850k, PMID: 20411954. The following applies: pH 7.4.
Series [7] is described as follows: method code SF-AS, from DOI: 10.1016/0048-3575(87)90152-0.
For series [8] the following is noted: pH 7.4.
Experiment in series [9]: not given
The source holds these as a separate data set.

Experiment in series [10]: not given
The source holds these as a separate data set.

The nature of series [11]: method code RP-HPLC, from DOI: 10.1016/0143-7208(91)85018-4. To be noted: pH 7.0.
A short description of series [12]: method code SF-RC, from DOI: 10.1111/j.2042-7158.1987.tb06949.x, PMID: 2882008. The following applies: pH 1.0.
Series [13] in a line: method code SF-RC, from DOI: 10.1002/jlcr.1863. The following applies: pH 7.4.
A short description of series [14]: method code SF-AS, from PMID: 11446164. To be noted: pH 5.9.
Series [15] can be described thus: method code SF-HPLC, from DOI: 10.1023/a:1015968113838, PMID: 3247280. To be noted: pH 7.4.
The nature of series [16]: method code SF-AS, from PMID: 19779. To be noted: pH 2.0.
Experiment in series [17]: not given
This is another data set of the same source.

Experiment in series [18]: not given
The source holds these as a separate data set.

Series [19] is described as follows: method code SF-AS, from DOI: 10.1016/0223-5234(94)90063-9. The following applies: pH 2.0.
A short description of series [20]: method code SF-RC, from DOI: 10.1021/jm0607193, PMID: 17004725.
The nature of series [21]: method code SF-HPLC, from DOI: 10.1016/0928-0987(95)00046-1. The following applies: pH 4.0.
Series [22] in a line: method code SF, from DOI: 10.1007/bf01610114, PMID: 6839039.
The nature of series [23]: method code SF, from DOI: 10.1021/jm0498699.s001, PMID: 15163209.
Series [24] is described as follows: method code SF-HPLC, from DOI: 10.1111/j.1747-0285.2011.01193.x, PMID: 21777394. The following applies: pH 7.4.
Series [25] in a line: method code SF-RC, from DOI: 10.1021/es00096a007.
Experiment in series [26]: not given
This is another data set of the same source.

Series [27] in a line: method code SF-HPLC, from DOI: 10.1021/jm00119a020. The following applies: pH 7.4.
Series [28] can be described thus: method code SF-RC, from DOI: 10.1002/ps.2780240105. The following applies: pH 7.0.
The nature of series [29]: method code SF-AS, from DOI: 10.1021/jm00384a018, PMID: 3806586.
Series [30] can be described thus: method code SF-AS, from DOI: 10.1021/jm00160a012, PMID: 3761307. To be noted: pH 7.4.
The nature of series [31]: method code SF-AS, from DOI: 10.1021/jm00254a028, PMID: 4845386.
Experiment in series [32]: not given
This is another data set of the same source.

A short description of series [33]: method code SF, from DOI: 10.1016/0048-3575(89)90162-4.
Series [34] in a line: method code SF-AS, from DOI: 10.1002/jps.2600620542, PMID: 4705706.
Series [35] is described as follows: method code SF-AS, from DOI: 10.1021/jm991080o, PMID: 10579844. The following applies: pH 7.4.
A short description of series [36]: method code SF, from DOI: 10.1021/jm950585l, PMID: 8632436.
Experiment in series [37]: not given
This is another data set of the same source.

Series [38] can be described thus: method code SF, from DOI: 10.3109/00498258909043190, PMID: 2618089. To be noted: pH 10.8.
A short description of series [39]: method code SF, from PMID: 8265709. To be noted: pH 7.4.
Series [40] in a line: method code SF-AS, from DOI: 10.1002/jps.2600741028, PMID: 4078715.
Experiment in series [41]: not given
The source holds these as a separate data set.

A short description of series [42]: method code SF-AS, from DOI: 10.1021/jm00392a004, PMID: 3625703. To be noted: pH 6.9.
Experiment in series [43]: not given
This is another data set of the same source.

Series [44] in a line: method code SF-RC, from DOI: 10.1016/s0969-8051(98)00005-5, PMID: 9720665. The following applies: pH 7.0.
A short description of series [45]: method code SF-AS, from DOI: 10.1002/ardp.19843170314.

Take `O=c1ccn(CCO)c(C(O)c2ccccc2)c1O` (stereo unspecified): the logP was 0.58.

Consider `CN(CCc1ccccc1)C(=O)c1ccc[nH]1`, for which, in series [1], the pH-dependent lipophilicity (logD) was found to be 1.65.

Compound `Fc1ccc(C(c2ccc(F)cc2)C(Cl)(Cl)Cl)cc1` gave a logP in [2] of 4.62.

In series [3], `CCOP(=S)(Oc1ccc([N+](=O)[O-])cc1)c1ccccc1` (stereo unspecified) yielded a logD of 3.85.

`CNc1ncnc2c1ncn2Cc1ccccc1F` gave a pH-dependent lipophilicity (logD) in series [4] of 1.86.

For the compound `CCCCC(O)(Cn1cncn1)c1ccc(Cl)cc1Cl` (stereo unspecified), the logP in series [5] is 3.9.

`CON=C1C=C(C#Cc2csc(CF)n2)CCC1` had a logD in series [6] of 1.6.

`CCC(C(=O)Oc1ccccc1)C(C)C` (stereo unspecified) yielded a log partition coefficient (logP) in [7] of 4.2.

`CCCC(=O)OCOC(=O)c1ccccc1OC(C)=O` displayed a logD in [8] of 2.5.

Compound `Ic1ccc2nc(-c3ccc(-c4nnn[nH]4)cc3)cn2c1` registered a logP in series [9] of 1.73.

Regarding `CCN(CC)CCOC(=O)c1ccc(N)cc1`, the log partition coefficient (logP) in series [10] worked out at 2.1.

In [11], `Nc1ccc(N)c2c1C(=O)c1ccccc1C2=O` came in with a logD of 3.

For `Cc1c(Cl)cccc1Nc1ccccc1C(=O)O`, the logD in series [12] worked out at 4.18.

`O=c1[nH]c(=O)n(C2CC(O)C(CO)O2)cc1-c1cn(CCF)nn1` (stereo unspecified) had a logD in series [13] of -1.33.

`O=C1N=C(N2CCOCC2)CN1c1ccc(Cl)cc1`: the pH-dependent lipophilicity (logD) in [14] was found to be 1.32.

`CCCCC(=O)OCC1OC(n2cc(I)c(=O)[nH]c2=O)CC1O` (stereo unspecified): the logD in series [15] was found to be 1.44.

Take `CCC1(c2ccccc2)C(=O)NC(=O)N(C)C1=O` (stereo unspecified): the logD in [16] was 1.84.

Consider `CCn1cc(C(=O)O)c(=O)c2cc3nc[nH]c3cc21`, for which the logP in [17] was found to be 0.41.

Compound `CC1c2nc3ccccc3c(=O)n2CCN1C` (stereo unspecified) returned a logP in [18] of 0.64.

Turning to `Cn1c(CC(=O)O)cnc1C(=O)c1ccccc1`, in series [19], the logD came to 0.22.

With `COc1cc(C=CC(=O)C=C(C)O)cc(I)c1O`, the logP in series [20] was 1.35.

For `Cc1cnc(NC(=O)C2=C(O)c3ccccc3S(=O)(=O)N2C)s1`, in [21], the logD worked out at 2.34.

Turning to `C=CCOC(=O)c1ccccc1C(=O)OCC=C`, the logP in [22] is 3.23.

For the compound `COC(=O)CCNC(=O)c1cc(N2CC2)c([N+](=O)[O-])cc1[N+](=O)[O-]`, the logP in series [23] was 0.56.

`C[C@@H](OC(=O)N(N(CCCl)S(C)(=O)=O)S(C)(=O)=O)c1ccc([N+](=O)[O-])cc1` showed a logD in series [24] of 2.15.

`Nc1ccc2cc3ccccc3cc2c1` yielded a logP in [25] of 4.13.

For `OC(Cn1cncn1)(Cn1cncn1)c1ccc(Cl)cc1Cl`, the logP in [26] was determined as 1.1.

In the case of `CCCN1CCO[C@H]2c3cc(O)ccc3OC[C@@H]21`, the logD in series [27] is 1.97.

Regarding `CCCCc1c(C)nc(NCC)nc1OS(=O)(=O)N(C)C`, the logD in series [28] is 2.7.

In series [29], `CC(=O)C1=CCCN(NC(=O)c2ccccc2)C1` gave a logP of -0.1.

Compound `CC1=C(N)C(=O)c2c(COC(N)=O)c3n(c2C1=O)CC(N1CC1)C3N1CC1` (stereo unspecified) yielded a logD in series [30] of 0.23.

In turn, `OC1c2ccccc2C2CCCCC2C1O` (stereo unspecified) came in with a logP in series [31] of 2.47.

Take `c1ccc(CCc2ccccc2)cc1`: the logP in series [32] amounted to 4.6.

For `OC1(c2ccccc2Cl)CCCCC1n1cncn1` (stereo unspecified), the lipophilicity (logP) in series [33] was 2.68.

Regarding `COc1ccc(C(=O)c2ccncc2)cc1`, in series [34], the lipophilicity (logP) is 1.94.

`CCc1c(O)c(=O)ccn1CCOC(=O)C(C)C` had a logD in series [35] of 0.7.

For the compound `Cc1cc2c(ccc3c(C)cc(=O)[nH]c32)o1`, the logP in series [36] was found to be 2.21.

For the compound `O=C(O)C1(O)c2ccccc2-c2ccc(Cl)cc21` (stereo unspecified), in series [37], the logP turned out to be 3.22.

As to `O=C(Cn1c(=O)sc2ccc(Cl)cc21)N1CCNCC1`, the logD in [38] came out at 1.35.

In turn, `Cc1c(C(C)C)c(=O)n(-c2ccccc2)n1C` showed a logD in series [39] of 1.94.

Compound `COc1ccc(C=[N+]([O-])c2ccccc2)cc1` had a logP in series [40] of 1.94.

In [41], `C(=C\c1ccccc1)/c1ccccc1` displayed a logP of 4.59.

The compound `CCCCC1(c2ccncc2)CCC(=O)NC1=O` (stereo unspecified) registered a logD in series [42] of 1.68.

Consider `Cc1cc(NC(=O)C2=C(O)c3ccccc3S(=O)(=O)N2C)no1`, for which the logP in series [43] turned out to be 2.83.

Regarding `OC1OC2COC(c3ccc(I)cc3)OC2C(O)C1O` (stereo unspecified), the logD in series [44] came to 1.9.

`O=C(O)Cc1ccccc1Oc1ccc(Cl)cc1Cl` showed a logP in [45] of 4.8.
